Data as given in patent US20100041751A1, “Method to Reduce Oxidative Damage and Improve Mitochondrial Efficiency” (ACCERA, INC., priority 2005, published 2010).
Entries after “also recorded” stand apart in the source; their conditions may differ. Like-named read-outs stand apart in the source and are kept apart here.

Tests used:
[1] = cited from earlier work; for amount that will dissolve in water: in 1 liter of water at 20° C.
brain mitochondria = test: Respiration assays on brain mitochondria isolated from biopsies of MCT-fed aged beagle dogs; type: in vivo; details: for respiratory control ratio (RCR), coupling of respiration with ATP production: state III / state IV respiration, treatment vs control
Experimental: On the day of biopsy, the treatment group was administered 2 g/kg of MCTs and the control group was administered an isocaloric solution of sucrose by an oral-gastric tube. Approximately two hours after dosing, the animals were anaesthetized and biopsies were taken from the frontal and parietal lobes. Immediately after removing the biopsy tissue, the animals were euthanized with an injectable euthanizing agent.
Using the biopsied material, brain mitochondria were isolated and the following parameters were assayed in real-time:
Mitochondrial Assays. Mitochondria were isolated using differential centrifugation and released from synaptosomes using a nitrogen cell disrupter (1000 psi for 5 minutes).
The respiration assays were conducted using standard polarography in a sealed, thermostated, stirred chamber containing a Clark-type electrode, which measures oxygen within the chamber. The system was calibrated with oxygen-saturated water, to standardize the quantification of oxygen consumption. The assays were conducted at 37° C.
Once the mitochondria were inserted into the Oxytherm, complex I driven respiration (state II respiration) was measured by adding pyruvate and malate (2.5 and 5 mM). Subsequently, 150 μM ADP was added to induce state III respiration, which measured the rate of active respiration. Oligomycin was added to inhibit ATP synthase and put the mitochondria into state IV respiration. To assess UCP activity, free fatty acids were added. FCCP then was added to completely uncouple the mitochondria by depolarizing the membrane potential, which caused maximum electron transport activity and maximum oxygen consumption. Finally, rotenone was added to inhibit complex I electron transport and succinate was added to measure maximum complex II-driven electron transport and oxygen consumption (complex II-driven respiration). The respiratory control ratio (RCR) was tabulated by dividing state III respiration rates by state IV respiration rates.
The respiration rates that were tabulated on-site were analyzed using repeated-measures ANOVAs. For each measure, brain region (frontal vs. parietal) was the within-subject variable and group (control vs. MCT) was the between-subject variable.

MPTP treated mice = test: MPTP mouse model of Parkinson's disease; type: in vivo, C57BL mice
Experimental: 8- to 10-week-old male C57BL mice will be divided into four groups: control, MPTP treated plus dextrose, and MPTP treated plus MCT. In dextrose treated pups, 0.5 g/kg of dextrose will be administered by oral gavage 2 to 4 hours before MPTP treatment. In MCT treated pups, 0.5 g/kg of MCTs will be administered by oral gavage 2 to 4 hours before MPTP treatment. Each mouse will then be randomly assigned to receive four intraperitoneal injections of either MPTP (18 mg/kg of free base in saline) or saline at 2-hour intervals. Mice will subsequently be tested for motor performance on a rotarod. The rotarod will consist of four rotating rods of 3 cm diameter in separated compartments. Seven days after MPTP or saline injections the mice will be first pretrained three times (1 hour apart) using an accelerating mode. After the training sessions, the time on the rod will be recorded for successive rotational speeds, and the overall rod performance (ORP) for each mouse calculated.
Seven days after the last MPTP injection, mice will be killed and their brain tissue processed for immunohistochemical studies to examine levels of oxidative stress and effects of MPTP treatment. Cell fractions from the biopsied tissue will be frozen and analyzed for oxidative damage using markers of peroxynitrite, lipid peroxidation and 3-nitrotyrosine. […] In addition mitochondria will be isolated from each group and examined for mitochondrial efficiency.

[2] = Serum beta-hydroxybutyrate (BHB) levels in aged beagle dogs fed MCTs; type: in vivo
Experimental: Reducing oxidative damage and improving mitochondrial efficiency. Two groups of aged beagle dogs were tested for the effects of feeding MCT on oxidative damage and mitochondrial efficiency. The first group was maintained on MCTs (2 g/kg/day) and the second group on placebo control over a 2-month period. Blood samples were taken over 5 time points to monitor levels of the ketone body, beta-hydroxybutyrate (BHB). After two months of treatment, the dogs were anaesthetized and brain biopsies were collected for mitochondrial analysis. The animals were then euthanized and brain tissue was harvested for further analysis of mitochondrial function and protein levels.
The eight subjects (8-11 years) were divided into two equal sized groups, matched for age and sex. The first group was administered 2 g/kg/day of MCTs, which was added to their maintenance diet, and the other received only the maintenance diet. The test substance was manually added to the dog's normal chow and introduced over three days, such that one-third of the maximum dose was administered on the first day, two-thirds on the second day and the full dose on the third day. The subjects were maintained on the test substance over a two-month period. Blood samples for BHB analysis were taken on: Baseline (Day 0), Day 4, Day 14, Day 28, Biopsy/Euthanasia (Day 56 or 57).
Biopsy procedure. Approximately 30 minutes prior to surgery, a blood sample was taken for BHB analysis and then the animals were pre-medicated with acepromazine. Animals were induced using isoflurane (inhaled) via a facemask. The animal then were intubated and maintained in a deep plane of anaesthesia using isoflurane. […]
Serum BHB levels were assessed at five different time-points: (1) prior to treatment onset (T0), (2) after 4 days of treatment (T1), (3) after 14 days of treatment (T2), (4) after 28 days of treatment (T3), and (5) on the biopsy date (T4). The levels were analyzed using a repeated-measures ANOVA with time-point (T0 vs. T1 vs. T2 vs. T3 vs. T4) as a within-subject variable and group (control vs. MCT) as a between-subject variable.

[3] = tested on: brain tissue fractions (mitochondrial, P1, cytosolic); test: Markers of oxidative damage in brain fractions of MCT-fed aged beagle dogs; type: in vivo; details: MCT vs control
Experimental: The remaining mitochondria were stored in 10% DMSO at −80° C. and assayed for UCP isoforms by western blot and quantification of oxidative damage in the mitochondrial, P1 and cytosolic fractions. Mitochondria from the biopsied tissue were frozen and analyzed for oxidative damage using markers of peroxynitrite, lipid peroxidation and 3-nitrotyrosine. Markers of Oxidative Damage. The markers of oxidative damage were analyzed using a repeated-measures ANOVA with region (frontal vs. parietal) and fraction (mitochondrial vs. P1 vs. cytosolic) as the within-subject variables and group (control vs. MCT) as the between-subject variable.

In the case of `CCCCCCCCCCCCCC(=O)O` [Myristic], the Solubility ([1]; water at 20° C.) is given as 0.02 grams of acid per liter.
For `CCCCCCCCCCCC(=O)O` [Lauric], the Solubility ([1]; water at 20° C.) is given as 0.055 grams of acid per liter.
For `CCCCCC(=O)O` [Caproic, caproic acid], the Solubility [1] is listed as 9.7 grams of acid per liter and the “amount that will dissolve in water” value [1] is listed as 9.7 grams.
For `CCCCCCCCCCCCCCCC(=O)O` [Palmitic, palmitic acid], the “amount that will dissolve in water” value [1] is given as 0.007 grams.
With `CCCCCCCC(=O)OCC(COC(=O)CCCCCCC)OC(=O)CCCCCCC` [MCTs, tri-C8:0 medium chain triglycerides] the “State III respiration” value (brain mitochondria; parietal and frontal cortices vs control, group effect p=0.008) was “more oxygen consumption per minute than the control group”, the “State IV respiration” value (brain mitochondria; parietal and frontal cortices vs control, marginally significant p=0.067) was “slightly more oxygen consumption per minute than the control group” and the “Uncoupling Protein (UCP) activity” value (brain mitochondria; parietal and frontal cortices vs control, marginally significant p=0.086) was “consumed more oxygen per minute than the control animals”. For the same compound, the “improvement of mitochondrial function by brain region” value (brain mitochondria; parietal cortex vs frontal cortex) was “more effective at improving mitochondrial function in the parietal cortex than the frontal cortex”, the “State II respiration” value (brain mitochondria; parietal cortex, oxygen consumption per minute per mg of tissue vs control, p=0.010) was “significantly less oxygen consumption” and the “respiratory control ratio (RCR), coupling of respiration with ATP production” value (brain mitochondria) was “better coupling of respiration with ATP formation”. For the same compound, the “respiratory control ratio (RCR), coupling of respiration with ATP production” value (brain mitochondria; listed as MCT) was “better coupled to ATP production”, the “Complex I-driven respiration (maximum electron transport capacity)” value (brain mitochondria; vs control, group effect p=0.002) was “larger maximum electron transport activity than the control group” and the “Complex II-driven respiration” value (brain mitochondria; vs control, region x group interaction p=0.047, listed as MCT) was “consumed more oxygen per minute than the control in the parietal cortex; also recorded: no difference”. For the same compound, the “motor performance on rotarod” value (MPTP treated mice; 0.5 g/kg MCTs oral gavage 2 to 4 hours before MPTP) was “lessen the decline in motor performance”, the “signs of oxidative damage” value (MPTP treated mice; brain tissue seven days after last MPTP injection) was “fewer signs of oxidative damage” and the mitochondrial efficiency (MPTP treated mice; isolated mitochondria) was “improved mitochondrial efficiency”. For the same compound, the “levels of serum BHB” value ([2]; aged beagle dogs, MCTs 2 g/kg/day for 2 months vs control) was “increased levels of serum BHB”, the “Serum BHB levels at T4” value ([2]; biopsy date (Day 56 or 57), MCT vs control, p=0.012) was “significantly higher” and the “Serum BHB levels at T3” value ([2]; day 28 of treatment, MCT vs control, p=0.041) was “significantly higher”. The “Lipid oxidation, effect of group” value ([3]; frontal and parietal, mitochondrial, P1 and cytosolic fractions) was “no additional significant or marginally significant effects” and the “signs of oxidative damage” value ([3]; peroxynitrite (protein oxidation), lipid oxidation and 3-nitrotyrosine) was “decreased signs of oxidative damage; also recorded: decrease oxidative damage”.
